Source: patent US10344019B2 (priority 2010, dated 2019)

Tests used:
Type in all cases: cell-based
[1] = system: HCV 1a RLuc cells (dicistronic genotype 1a H77 replicon, RLuc reporter); assay: microbe, parasite or virus in culture; settings: Hepatitis C virus, genotype 1a H77 RLuc replicon; read-out: 1a
In short: (§1)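 Replicon cells stably carrying the listed RLuc-encoding dicistronic replicons were seeded and treated with DMSO serial dilutions of compound (10 mM stocks) diluted into culture medium. After 72 h, cells were lysed and Renilla luciferase activity measured. EC50 was derived by non-linear regression.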

[2] = system: HCV 1b RLuc cells (dicistronic genotype 1b Con1 replicon, RLuc reporter); assay: microbe, parasite or virus in culture; settings: Hepatitis C virus, read-out: 1b (nM)
In short: as §1

[3] = system: HCV 2a JFH-1 Rluc cells (dicistronic genotype 2a JFH-1 replicon, RLuc reporter); assay: microbe, parasite or virus in culture; settings: Hepatitis C virus, genotype 2a JFH-1 RLuc replicon; read-out: 2a JFH
In short: as §1

[4] = system: HCV 2b Rluc cells (NS5A chimeric genotype 2a JFH-1 replicon with genotype 2b MD2b-1 NS5A gene, M31 present); assay: microbe, parasite or virus in culture; settings: Hepatitis C virus, read-out: 2b
In short: as §1

[5] = system: HCV 3a RLuc cells (NS5A chimeric genotype 1b Con1 replicon with consensus genotype 3a NS5A gene); assay: microbe, parasite or virus in culture; settings: Hepatitis C virus, read-out: 3a, genotype 3a NS5A chimeric replicon
In short: as §1

[6] = system: HCV 4a Rluc cells (NS5A chimeric genotype 1b Con1 replicon with genotype 4a NS5A gene); assay: microbe, parasite or virus in culture; settings: Hepatitis C virus, read-out: 4a
In short: as §1

[7] = system: Q30R in genotype 1a NS5A, 1a Rluc replicon transfected into Huh-7 cured-51 cells; assay: HCV replicon assay, resistance mutant 1a Q30R; settings: Hepatitis C virus, Huh-7, read-out: 1a Q30R
In short: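 Q30R introduced into genotype 1a H77 RLuc replicon by site-directed mutagenesis; replicon RNA transfected into Huh-7 cured-51 cells.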

[8] = system: HCV 2a Rluc cells (NS5A chimeric genotype 2a JFH-1 replicon with genotype 2a J6 strain NS5A gene, M31 present); assay: HCV replicon reporter assay, genotype 2a J6 (M31 present); settings: Hepatitis C virus, read-out: 2a J6
In short: as §1

Structure (SMILES) | EC50 [1] [nM] | EC50 [2] [nM] | EC50 [3] [nM] | EC50 [4] [nM] | EC50 [5] [nM] | EC50 [6] [nM] | EC50 [7] [nM] | EC50 [8] [nM]
COC[C@H]1C[C@@H](c2nc3ccc4cc(-c5ccc6c(ccc7nc([C@@H]8C[C@H](C)CN8C(=O)[C@@H](NC(=O)OC)C(C)C)[nH]c76)c5)ccc4c3[nH]2)N(C(=O)[C@H](N)c2ccccc2)C1 [Example 545] | 0.001 to 0.999 | 0.075 | 0.001 to 0.999 | 0.001 to 0.999 | 0.001 to 0.99 | 0.001 to 0.99 | 0.001 to 0.999 | 0.001 to 0.999
COC[C@H]1C[C@@H](c2nc3ccc4cc(-c5ccc6c(ccc7nc([C@@H]8C[C@H](SC)CN8C(=O)[C@@H](NC(=O)OC)C(C)C)[nH]c76)c5)ccc4c3[nH]2)N(C(=O)[C@H](NC(=O)OC)c2ccccc2)C1 [Example 546] | 0.001 to 0.999 | 0.048 | 0.001 to 0.999 | 0.001 to 0.999 | 0.001 to 0.99 | 0.001 to 0.99 | 0.001 to 0.999 | 0.001 to 0.999
COC[C@H]1C[C@@H](c2nc3ccc4cc(-c5ccc6c(ccc7nc([C@@H]8C[C@H]9C[C@H]9N8C(=O)[C@H](NC(=O)OC)c8ccccc8)[nH]c76)c5)ccc4c3[nH]2)N(C(=O)[C@@H](NC(=O)OC)C(C)C)C1 [Example 548] | 0.001 to 0.999 | 0.006 | 0.001 to 0.999 | 0.001 to 0.999 | 0.001 to 0.99 | 0.001 to 0.99 | 0.001 to 0.999 | 0.001 to 0.999
COCC(=O)N[C@@H](C(=O)N1C[C@@H](COC)C[C@H]1c1nc2ccc3cc(-c4ccc5c(ccc6nc([C@@H]7C[C@H](C)CN7C(=O)[C@@H](NC(=O)OC)C(C)C)[nH]c65)c4)ccc3c2[nH]1)c1ccccc1 [Example 550] | 0.001 to 0.999 | 0.013 | 0.001 to 0.999 | 0.001 to 0.999 | 0.001 to 0.99 | 0.001 to 0.99 | 0.001 to 0.999 | 0.001 to 0.999
CCO[C@H]1C[C@@H](c2nc3ccc4cc5c(cc4c3[nH]2)OCc2cc(-c3cnc([C@@H]4CCCN4C(=O)[C@@H](NC(=O)OC)C(C)C)[nH]3)ccc2-5)N(C(=O)[C@@H](NC(=O)OC)C(C)C)C1 [Example 551] | 0.001 to 0.999 | 0.018 | 0.001 to 0.999 | 0.001 to 0.999 | 0.001 to 0.99 | 0.001 to 0.99 | 0.001 to 0.999 | 0.001 to 0.999
CCO[C@H]1C[C@@H](c2nc3ccc4cc5c(cc4c3[nH]2)OCc2cc(-c3cnc([C@@H]4CCCN4C(=O)[C@H](NC(=O)OC)c4ccccc4)[nH]3)ccc2-5)N(C(=O)[C@@H](NC(=O)OC)C(C)C)C1 [Example 552] | 0.001 to 0.999 | 0.033 | 0.001 to 0.999 | 0.001 to 0.999 | 0.001 to 0.99 | 0.001 to 0.99 | 0.001 to 0.999 | 0.001 to 0.999
COC[C@H]1C[C@@H](c2nc3ccc4cc(-c5ccc6c(ccc7nc([C@@H]8CC[C@H](C)N8C(=O)[C@@H](NC(=O)OC)C(C)C)[nH]c76)c5)ccc4c3[nH]2)N(C(=O)[C@H](NC(=O)OC)c2ccccc2)C1 [Example 554] | 0.001 to 0.999 | 0.012 | 0.001 to 0.999 | 0.001 to 0.999 | 0.001 to 0.99 | 0.001 to 0.99 | 0.001 to 0.999 | 0.001 to 0.999
COC[C@H]1C[C@@H](c2nc3ccc4cc5c(cc4c3[nH]2)OCc2cc(-c3cnc([C@@H]4C[C@H](C)CN4C(=O)[C@@H](NC(=O)OC)C(C)C)[nH]3)ccc2-5)N(C(=O)[C@H](NC(=O)OC)c2ccccc2)C1 [Example 555] | 0.001 to 0.999 | 0.021 | 0.001 to 0.999 | 0.001 to 0.999 | 0.001 to 0.99 | 0.001 to 0.99 | 0.001 to 0.999 | 0.001 to 0.999
COC[C@H]1C[C@@H](c2nc3ccc4cc(-c5ccc6c(ccc7nc([C@@H]8C[C@H](C)CN8C(=O)[C@@H](NC(=O)OC)C(C)C)[nH]c76)c5)ccc4c3[nH]2)N(C(=O)[C@@H](NC(=O)OC)[C@@H](C)OC)C1 [Example 559] | 0.001 to 0.999 | 0.08 | 0.001 to 0.999 | 0.001 to 0.999 | 0.001 to 0.99 | 0.001 to 0.99 | 0.001 to 0.999 | 0.001 to 0.999
COC[C@H]1C[C@@H](c2nc3ccc4cc(-c5ccc6c(ccc7nc([C@@H]8C[C@H](C)CN8C(=O)[C@@H](NC(=O)OC)C(C)C)[nH]c76)c5)ccc4c3[nH]2)N(C(=O)[C@@H](NC(=O)OC)C2CCOCC2)C1 [Example 560] | 0.001 to 0.999 | 0.092 | 0.001 to 0.999 | 0.001 to 0.999 | 0.001 to 0.99 | 0.001 to 0.99 | 0.001 to 0.999 | 0.001 to 0.999
COC[C@H]1C[C@@H](c2nc3ccc4cc5c(cc4c3[nH]2)OCc2cc(-c3cnc([C@@H]4CC[C@H](C)N4C(=O)[C@@H](NC(=O)OC)C(C)C)[nH]3)ccc2-5)N(C(=O)[C@@H](NC(=O)OC)C(C)C)C1 [Example 561] | 0.001 to 0.999 | 0.01 | 0.001 to 0.999 | 0.001 to 0.999 | 0.001 to 0.99 | 0.001 to 0.99 | 0.001 to 0.999 | 0.001 to 0.999
COC[C@H]1C[C@@H](c2nc3ccc4cc5c(cc4c3[nH]2)OCc2cc(-c3cnc([C@@H]4C[C@H](C)CN4C(=O)[C@@H](NC(=O)OC)C(C)C)[nH]3)ccc2-5)N(C(=O)[C@@H](NC(=O)OC)C(C)C)C1 [Example 562] | 0.001 to 0.999 | 0.019 | 0.001 to 0.999 | 0.001 to 0.999 | 0.001 to 0.99 | 0.001 to 0.99 | 0.001 to 0.999 | 0.001 to 0.999
COC(=O)N[C@H](C(=O)N1C[C@@H](C)C[C@H]1c1nc2ccc3cc4c(cc3c2[nH]1)OCc1cc(-c2cnc([C@@H]3CCCN3C(=O)[C@H](NC(=O)OC)c3ccccc3)[nH]2)ccc1-4)C(C)C [Example 565] | 0.001 to 0.999 | 0.017 | 0.001 to 0.999 | 0.001 to 0.999 | 0.001 to 0.99 | 0.001 to 0.99 | 0.001 to 0.999 | 0.001 to 0.999
COC(=O)N[C@H](C(=O)N1C[C@@H](C)C[C@H]1c1nc2ccc3cc4c(cc3c2[nH]1)OCc1cc(-c2cnc([C@@H]3CC[C@H](C)N3C(=O)[C@@H](NC(=O)OC)C(C)C)[nH]2)ccc1-4)C(C)C [Example 566] | 0.001 to 0.999 | 0.009 | 0.001 to 0.999 | 0.001 to 0.999 | 0.001 to 0.99 | 0.001 to 0.99 | 0.001 to 0.999 | 0.001 to 0.999
COC[C@H]1C[C@@H](c2nc3ccc4cc(-c5ccc(-c6cnc([C@@H]7CCCN7C(=O)[C@@H](NC(=O)OC)C(C)C)[nH]6)cc5OC(F)F)ccc4c3[nH]2)N(C(=O)[C@H](NC(=O)OC)c2ccccc2)C1 [Example 567] | 0.001 to 0.999 | 0.007 | 0.001 to 0.999 | 0.001 to 0.999 | 0.001 to 0.99 | 0.001 to 0.99 | 0.001 to 0.999 | 0.001 to 0.999
COC[C@H]1C[C@@H](c2nc3ccc4cc(-c5ccc6c(ccc7nc([C@@H]8C[C@H](C)CN8C(=O)[C@@H](NC(=O)OC)C(C)C)[nH]c76)c5)ccc4c3[nH]2)N(C(=O)[C@@H](NC(=O)OC)C(C)C)C1 [Example 568] | 0.001 to 0.999 | 0.021 | 0.001 to 0.999 | 0.001 to 0.999 | 0.001 to 0.99 | 0.001 to 0.99 | 0.001 to 0.999 | 0.001 to 0.999
COC(=O)N[C@H](C(=O)N1C[C@@H](C)C[C@H]1c1ncc(-c2ccc3c(c2)COc2cc4c(ccc5nc([C@@H]6C[C@H](C)CN6C(=O)[C@@H](NC(=O)OC)C(C)C)[nH]c54)cc2-3)[nH]1)C(C)C [Example 569] | 0.001 to 0.999 | 0.024 | 0.001 to 0.999 | 0.001 to 0.999 | 0.001 to 0.99 | 0.001 to 0.99 | 0.001 to 0.999 | 0.001 to 0.999
COC[C@H]1C[C@@H](c2nc3ccc4cc5c(cc4c3[nH]2)OCc2cc(-c3cnc([C@@H]4CCCN4C(=O)[C@@H](NC(=O)OC)C(C)C)[nH]3)ccc2-5)N(C(=O)[C@H](N)c2ccccc2)C1 [Example 571] | 0.001 to 0.999 | 0.114 | 0.001 to 0.999 | 0.001 to 0.999 | 0.001 to 0.99 | 0.001 to 0.99 | 0.001 to 0.999 | 0.001 to 0.999
COC(=O)N[C@H](C(=O)N1C[C@@H](C)C[C@H]1c1nc2ccc3cc4c(cc3c2[nH]1)OCc1cc(-c2cnc([C@@H]3C[C@H](C)CN3C(=O)[C@H](NC(=O)OC)c3ccccc3)[nH]2)ccc1-4)C(C)C [Example 573] | 0.001 to 0.999 | 0.03 | 0.001 to 0.999 | 0.001 to 0.999 | 0.001 to 0.99 | 0.001 to 0.99 | 0.001 to 0.999 | 0.001 to 0.999
